This is an account of results in patent US12637418B2, “Heterocyclic compounds as antagonist of NMDA” (TAKEDA PHARMACEUTICAL COMPANY LIMITED, priority 2019, dated 2026).

Test [1] concerns the target NMDA receptor composed of four subunits including 2 sets of heterodimers of NR1 and NR2B (human GRIN1 and GRIN2B expressed in HEK293 cell) (Homo sapiens, UniProt Q13224). The experiment in a line: NR2B Ca^2+ influx assay. Type of test: cell-based. To be noted: 10 μM final compound concentration, 30 μM glutamic acid and 30 μM glycine, HEK293 cells expressing GRIN1 and GRIN2B, Fluo-4 fluorescence; for inhibition at 10 µM: read-out: inhibitory rate (10 μM compound concentration). From the text:
To confirm the “antagonistic action on an NMDA receptor containing the NR2B subunit” of the compound of the present invention, human embryonic kidney cell expressing the “NMDA receptor composed of four subunits including 2 sets of heterodimers of NR1 and NR2B”, specifically HEK293 cell expressing human glutamate ionotropic receptor NMDA type subunit 1 (GRIN1) and human glutamate ionotropic receptor NMDA type subunit 2B (GRIN2B), was used and the activation suppressive effect on the receptors was measured.
HEK293 cells that express GRIN1 and GRIN2B were purchased from ChanTest (Human NMDA (NR1/NR2B) Receptor-expressing, stable replicating cell line (HEK293) catalog No. CT6121).
As an index of the NMDA receptor activation, intracellular calcium ion (Ca^2+) influx caused by the binding of glycine and glutamic acid with NR1 and NR2B, respectively, was used.
HEK293 cells that express GRIN1 and GRIN2B were cultured in DMEM/F-12 (COSMO BIO, 10-092-CM) medium added with 10% FBS (fetal bovine serum, AusGene), 100 units/mL penicillin, 100 μg/mL streptomycin, 500 μg/mL neomycin, 100 μg/mL Zeocin (registered trade mark, Invitrogen), 5 μg/mL Blasticidin in a cell culture flask in an incubator (under 37° C., 5% CO2).
The cells were detached from the flask with trypsin the day before the assay, suspended in a seeding medium (DMEM (Invitrogen, 31053) added with 10% FBS, 100 units/mL penicillin, 100 μg/mL streptomycin) at 8×10^5 cells/mL, seeded by 25 μL per well in a 384-well plate (Falcon, 356663) at 20000 cells/well, and cultured overnight in an incubator. On the day of the assay, tetracycline (Wako Pure Chemical Industries, Ltd., 209-16561) was diluted with the seeding medium at 2 μg/mL, added at 25 μL/well to the plate seeded with the cells, and cultured for 2 hr in an incubator. Thereafter, the medium was removed, and the cells were washed with 50 μL/well assay buffer (137 mM NaCl, 4 mM KCl, 1.8 mM CaCl2, 10 mM HEPES (pH 7.2), 10 mM Glucose, 0.1% BSA). Then, a loading buffer (assay buffer added with 2.5 μM Fluo-4AM, 2 mM Amaranth, 1 mM Tartrazine) was added at 25 μL/well, and the cells were incubated in the incubator for 30 min, and at room temperature for 15 min. A solution of the Example compound diluted with the above-mentioned assay buffer at 30 μM (final concentration 10 μM) was added at 25 μL/well, and the cells were left standing for 15 min at room temperature. Using FDSS7000EX/μCELL (Hamamatsu Photonics K.K.), an assay buffer containing 30 μM glutamic acid and 30 μM glycine was added at 25 μL/well, and fluorescence signals with wavelengths of Excitation 480 nm and Emission 540 nm were measured every 3 seconds for 5 min. The inhibitory activity was calculated as a relative activity value (inhibitory rate) that inhibits 100% of the cumulative value of the fluorescence value of a well added with an assay buffer free of glutamic acid, glycine, relative to the cumulative value of the fluorescence value of each well.

For test [2] the following is noted: rodents; cited from earlier work.

NMDA receptor composed of four subunits including 2 sets of heterodimers of NR1 and NR2B (human GRIN1 and GRIN2B expressed in HEK293 cell), sequence (Q13224 27-1484, other chains not shown): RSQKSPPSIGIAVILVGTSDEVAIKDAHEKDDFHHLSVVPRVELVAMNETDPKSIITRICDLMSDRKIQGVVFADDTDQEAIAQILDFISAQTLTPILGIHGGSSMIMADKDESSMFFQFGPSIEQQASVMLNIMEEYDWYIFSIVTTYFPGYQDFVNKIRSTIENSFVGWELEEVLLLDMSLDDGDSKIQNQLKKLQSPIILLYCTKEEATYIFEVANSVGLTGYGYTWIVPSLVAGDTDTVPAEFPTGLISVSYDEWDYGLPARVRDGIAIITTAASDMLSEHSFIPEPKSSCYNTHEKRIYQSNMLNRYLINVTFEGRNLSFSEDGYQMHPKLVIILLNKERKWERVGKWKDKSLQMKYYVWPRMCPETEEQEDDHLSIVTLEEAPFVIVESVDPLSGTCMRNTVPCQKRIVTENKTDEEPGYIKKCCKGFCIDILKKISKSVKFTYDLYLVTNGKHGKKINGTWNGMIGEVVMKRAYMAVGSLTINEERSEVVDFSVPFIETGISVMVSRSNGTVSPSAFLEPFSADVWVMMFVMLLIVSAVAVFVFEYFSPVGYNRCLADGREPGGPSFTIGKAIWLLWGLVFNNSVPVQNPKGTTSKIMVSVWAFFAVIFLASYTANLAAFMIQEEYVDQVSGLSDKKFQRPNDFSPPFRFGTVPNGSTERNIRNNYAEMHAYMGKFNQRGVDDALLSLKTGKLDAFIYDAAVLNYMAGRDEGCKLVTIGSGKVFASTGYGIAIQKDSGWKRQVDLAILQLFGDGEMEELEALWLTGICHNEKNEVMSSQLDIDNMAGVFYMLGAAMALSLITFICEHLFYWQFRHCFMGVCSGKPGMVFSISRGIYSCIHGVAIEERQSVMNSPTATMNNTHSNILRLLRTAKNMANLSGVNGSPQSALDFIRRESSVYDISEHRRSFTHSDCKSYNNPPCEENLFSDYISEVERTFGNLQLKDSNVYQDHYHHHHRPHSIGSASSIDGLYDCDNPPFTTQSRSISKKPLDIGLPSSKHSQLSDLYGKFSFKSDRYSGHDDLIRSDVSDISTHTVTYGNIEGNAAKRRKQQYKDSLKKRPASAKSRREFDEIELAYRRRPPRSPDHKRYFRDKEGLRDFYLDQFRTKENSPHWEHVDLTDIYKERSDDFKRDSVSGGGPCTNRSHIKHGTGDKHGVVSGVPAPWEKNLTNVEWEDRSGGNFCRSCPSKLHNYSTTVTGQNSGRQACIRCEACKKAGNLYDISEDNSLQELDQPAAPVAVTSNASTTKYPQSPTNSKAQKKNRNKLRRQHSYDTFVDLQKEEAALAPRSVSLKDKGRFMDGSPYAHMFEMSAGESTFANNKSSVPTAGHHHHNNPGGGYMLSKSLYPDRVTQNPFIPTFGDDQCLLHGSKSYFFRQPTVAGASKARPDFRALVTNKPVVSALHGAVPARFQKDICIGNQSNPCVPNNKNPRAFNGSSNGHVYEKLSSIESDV

As to `COc1ncc(C(=O)NCc2cc(C#N)cc(F)c2OC)cc1F` [Example 21, N-[(5-cyano-3-fluoro-2-methoxyphenyl)-methyl]-5-fluoro-6-methoxypyridine-3-carboxamide], the inhibition at 10 µM in test [1] was determined as 94%. The same measure, in the same setting: in the case of `N#Cc1ccc(C2CC2)c(CNC(=O)c2ccc(OC(F)F)c(F)c2)c1` [Example 6, N-[(5-cyano-2-cyclopropylphenyl)-methyl]-4-(difluoromethoxy)-3-fluorobenzamide] it was 93%. As for `COc1cnc(C#N)cc1CNC(=O)c1ccc(C(F)(F)F)c(F)c1` [Example 30, N-[(2-cyano-5-methoxypyridin-4-yl)methyl]-3-fluoro-4-(trifluoromethyl)-bezamide], the “inhibitory rate (10 μM compound concentration)” value in test [1] was 87.

As for `Cc1c(C#N)ccc(F)c1CNC(=O)c1cnc(OC(F)F)c(F)c1` [Example 18, N-[(3-cyano-6-fluoro-2-methylphenyl)-methyl]-6-(difluoromethoxy)-5-fluoropyridine-3-carboxamide], the inhibition at 10 µM in test [1] is 66%. The same measure, in the same setting: in the case of `COc1ccc(C#N)cc1CNC(=O)c1ccc(OC(F)(F)F)c(F)c1` [Example 11, N-[(5-cyano-2-methoxyphenyl)-methyl]-3-fluoro-4-(trifluoromethoxy)-benzamide] it was 96%. Still for that read-out and setting: the same measure for `COc1c(F)cc(C#N)cc1CNC(=O)c1cnc(OC(F)F)c(F)c1` [Example 20, N-[(5-cyano-3-fluoro-2-methoxyphenyl)-methyl]-6-(difluoromethoxy)-5-fluoropyridine-3-carboxamide]: 97%; for `COc1ccc(C#N)cc1CNC(=O)c1ccc(OC(F)F)c(F)c1` [Example 10, N-[(5-cyano-2-methoxyphenyl)-methyl]-4-(difluoromethoxy)-3-fluorobenzamide]: 95%. Consider `COc1ccc(C#N)nc1CNC(=O)c1cnc(OC(F)F)c(F)c1` [Example 19, N-[(6-cyano-3-methoxypyridin-2-yl)methyl]-6-(difluoromethoxy)-5-fluoropyridine-3-carboxamide], for which the inhibition at 10 µM in test [1] stood at 89%. On the same count and under the same terms, in the case of `COc1cc(C#N)cc(CNC(=O)c2cnc(OC(F)F)c(F)c2)c1F` [Example 25, N-[(5-cyano-2-fluoro-3-methoxyphenyl)-methyl]-6-(difluoromethoxy)-5-fluoropyridine-3-carboxamide] it was 89%; in that of `N#Cc1ccc(Br)c(CNC(=O)c2ccc(OC(F)(F)F)c(F)c2)c1` [Example 1, N-[(2-bromo-5-cyanophenyl)methyl]-3-fluoro-4-(trifluoromethoxy)benzamide], 86%; in that of `N#Cc1ccc(Br)c(CNC(=O)c2ccc(OC(F)F)c(F)c2)c1` [Example 3, N-[(2-bromo-5-cyanophenyl)methyl]-4-(difluoromethoxy)-3-fluorobenzamide], 93%.

Turning to `COc1cc(C#N)cc(CNC(=O)c2cnc(OC(F)F)c(F)c2)c1` [Example 24, N-[(3-cyano-5-methoxyphenyl)-methyl]-6-(difluoromethoxy)-5-fluoropyridine-3-carboxamide], the inhibition at 10 µM in test [1] is 97%. Same read-out and setting: the same measure for `COc1c(CNC(=O)c2cnc(OC(F)F)c(F)c2)cc(C#N)nc1C` [Example 27, N-[(6-cyano-3-methoxy-2-methyl-pyridin-4-yl)methyl]-6-(difluoromethoxy)-5-fluoropyridine-3-carboxamide]: 77%; for `N#Cc1ccc(OCC(F)(F)F)c(CNC(=O)c2cnc(OC(F)F)c(F)c2)c1` [Example 13, N-{[5-cyano-2-(2,2,2-trifluoroethoxy)-phenyl]-methyl}-6-(difluoromethoxy)-5-fluoropyridine-3-carboxamide]: 93%; for `COc1cnc(C#N)cc1CNC(=O)c1cnc(OC(F)F)c(F)c1` [Example 28, N-[(2-cyano-5-methoxypyridin-4-yl)methyl]-6-(difluoromethoxy)-5-fluoropyridine-3-carboxamide]: 91%.

With `N#Cc1ccc(F)c(CNC(=O)c2cnc(OC(F)F)c(F)c2)c1` [Example 12, N-[(5-cyano-2-fluorophenyl)methyl]-6-(difluoromethoxy)-5-fluoropyridine-3-carboxamide], the inhibition at 10 µM in test [1] came out at 91%. Regarding `C[C@@H](CN1CCC(Cc2ccccc2)CC1)[C@@H](O)c1ccc(O)cc1` [Ro25-6981], in test [2], the “number of occurrence and depth of cortical spreading depression” value was “suppress the number of occurrence and the depth of cortical spreading depression”.

On to `COc1ccc(C#N)cc1CNC(=O)c1cnc(OC(F)F)c(F)c1` [Example 7, N-[(5-cyano-2-methoxyphenyl)methyl]-6-(difluoromethoxy)-5-fluoropyridine-3-carboxamide], for which the inhibition at 10 µM in test [1] was 94%. As for `N#Cc1ccc(C2CC2)c(CNC(=O)c2cnc(OC(F)F)c(F)c2)c1` [Example 5, N-[(5-cyano-2-cyclopropylphenyl)-methyl]-6-(difluoromethoxy)-5-fluoropyridine-3-carboxamide], the inhibition at 10 µM in test [1] turned out to be 95%. With `COc1c(C#N)ccc(F)c1CNC(=O)c1cnc(OC(F)F)c(F)c1` [Example 15, N-[(3-cyano-6-fluoro-2-methoxyphenyl)-methyl]-(difluoromethoxy)-5-fluoropyridine-3-carboxamide], in test [1], the inhibition at 10 µM was 89%.

With `COc1cc(C#N)cc(CNC(=O)c2cnc(OC)c(F)c2)c1F` [Example 26, N-[(5-cyano-2-fluoro-3-methoxyphenyl)-methyl]-5-fluoro-6-methoxypyridine-3-carboxamide], the inhibition at 10 µM in test [1] is 75%.

Turning to `COc1cnc(C#N)cc1CNC(=O)c1ccc(OC(F)(F)F)cc1` [Example 29, N-[(2-cyano-5-methoxypyridin-4-yl)methyl]-4-(trifluoromethoxy)-bezamide], the “inhibitory rate (10 μM compound concentration)” value in test [1] came out at 92. `N#Cc1ccc(Br)c(CNC(=O)c2cnc(OC(F)F)c(F)c2)c1` [Example 2, N-[(2-bromo-5-cyanophenyl)methyl]-6-(difluoromethoxy)-5-fluoropyridine-3-carboxamide]: the inhibition at 10 µM in test [1] was 92%. As to `Cc1ccc(C#N)cc1CNC(=O)c1cnc(OC(F)F)c(F)c1` [Example 8, N-[(5-cyano-2-methylphenyl)-methyl]-6-(difluoromethoxy)-5-fluoropyridine-3-carboxamide], the inhibition at 10 µM in test [1] came out at 83%.

As to `COc1cnc(C#N)c(F)c1CNC(=O)c1cnc(OC(F)F)c(F)c1` [Example 22, N-[(2-cyano-3-fluoro-5-methoxypyridin-4-yl)methyl]-6-(difluoromethoxy)-5-fluoropyridine-3-carboxamide], the inhibition at 10 µM in test [1] turned out to be 94%. With `COc1cc(F)c(C#N)cc1CNC(=O)c1cnc(OC(F)F)c(F)c1` [Example 23, N-[(5-cyano-4-fluoro-2-methoxyphenyl)-methyl]-6-(difluoromethoxy)-5-fluoropyridine-3-carboxamide], the inhibition at 10 µM in test [1] worked out at 98%. On the same count and under the same terms, in the case of `N#Cc1ccc(C2CC2)c(CNC(=O)c2ccc(OC(F)(F)F)c(F)c2)c1` [Example 4, N-[(5-cyano-2-cyclopropylphenyl)-methyl]-3-fluoro-4 (trifluoromethoxy)-benzamide] it was 94%; in that of `N#Cc1ccc(OCC(F)F)c(CNC(=O)c2cnc(OC(F)F)c(F)c2)c1` [Example 14, N-{[5-cyano-2-(2,2-difluoroethoxy)-phenyl]-methyl}-6-(difluoromethoxy)-5-fluoropyridine-3-carboxamide], 92%. The same measure, in the same setting: the same measure for `COc1ncc(C#N)cc1CNC(=O)c1ccc(C(F)(F)F)s1` [Example 16, N-[(5-cyano-2-methoxypyridin-3-yl)methyl]-5-(trifluoromethyl)thiophene-2-carboxamide]: 94%.
